Source: patent US10752587B2, “Homobispiperidinyl derivatives as liver X receptor beta agonists, compositions and their use” (Merck Sharp & Dohme Corp., priority 2015, dated 2020)
Read-outs that look alike come from different tables or passages of the source.

What was measured:
[1] = target: T1, glutathione-S-transferase (GST) tagged LXRbeta LBD (ligand binding domain) (Homo sapiens, UniProt P55055); test: LanthaScreen TR-FRET Liver X Receptor Coactivator Assay, co-activator recruitment to LXRbeta LBD; type: biochemical
T1 construct: purchased Invitrogen pv4658.pps
T1 sequence (P55055 222-460 limits assumed): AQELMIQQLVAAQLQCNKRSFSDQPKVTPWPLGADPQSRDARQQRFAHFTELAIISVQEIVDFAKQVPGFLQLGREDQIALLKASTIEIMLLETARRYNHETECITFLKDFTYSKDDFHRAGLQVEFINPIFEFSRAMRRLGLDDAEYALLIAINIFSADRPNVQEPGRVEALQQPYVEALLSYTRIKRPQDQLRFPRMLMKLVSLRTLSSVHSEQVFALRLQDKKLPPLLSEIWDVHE
In short: (§1)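 LXRα- or LXRβ-LBD protein was added to test compounds, then fluorescein-labelled coactivator peptide plus Tb-anti-GST antibody; after room-temperature incubation, TR-FRET was read. Inflection point (IP) and Emax were expressed relative to the dual agonist reference T0901317.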

[2] = target: T2, glutathione-S-transferase (GST) tagged LXRalpha LBD (ligand binding domain) (Homo sapiens, UniProt Q13133); test: LanthaScreen TR-FRET Liver X Receptor Coactivator Assay, co-activator recruitment to LXRalpha LBD; type: biochemical
T2 construct: purchased Invitrogen pv4655
T2 sequence (Q13133 209-447 limits assumed): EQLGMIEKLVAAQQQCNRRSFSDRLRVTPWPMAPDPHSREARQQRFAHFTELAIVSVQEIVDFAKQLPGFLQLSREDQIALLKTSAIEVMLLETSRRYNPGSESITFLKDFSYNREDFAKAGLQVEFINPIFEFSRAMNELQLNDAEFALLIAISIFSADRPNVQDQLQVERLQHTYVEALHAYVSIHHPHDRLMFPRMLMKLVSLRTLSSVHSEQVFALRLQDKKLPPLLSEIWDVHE
In short: as §1

[3] = potency (Inflection Point, IP), co-activator recruitment to LXRalpha LBD, in relation to T0901317
[4] = efficacy at max dose, in relation to reference dual agonist T0901317, read-out: LXR beta Activity @ max dose (%)
[5] = potency (Inflection Point, IP), co-activator recruitment to LXRbeta LBD, in relation to T0901317, read-out: LXR beta IP
[6] = efficacy at max dose, in relation to reference dual agonist T0901317, read-out: LXR alpha Activity @ max dose (%)
[7] = potency (Inflection Point, IP), co-activator recruitment to LXRalpha LBD, in relation to T0901317, read-out: LXR alpha IP
[8] = co-activator recruitment to GST-LXRbeta LBD, TR-FRET, read-out: LXR beta IP (Inflection Point, potency)
[9] = efficacy in relation to reference dual agonist T0901317, read-out: LXR beta Activity @ max dose
[10] = co-activator recruitment to GST-LXRalpha LBD, TR-FRET
[11] = efficacy in relation to reference dual agonist T0901317, read-out: LXR alpha Activity @ max dose
[12] = co-activator recruitment to GST-LXRalpha LBD, TR-FRET, read-out: LXR alpha IP (Inflection Point, potency)

| LXR alpha IP (nM) [2, 3] | Emax [1, 4] [%] | EC50 [1, 5] [nM] | Emax [2, 6] [%] | EC50 [2, 7] [nM] | Structure (SMILES) | other results |
| --- | --- | --- | --- | --- | --- | --- |
| NO IP | 30 | 51 | 4 |  | O=C(c1ccc(N2CCC(CC3CCN(C(=O)[C@](O)(c4cc(Cl)cc(Cl)c4)C(F)(F)F)CC3)CC2)cc1Cl)N1CCC[C@@H]1CO [Example 4-23, (2R)-3-(4-{[1-(3-chloro-4-{[(2R)-2-(hydroxymethyl)pyrrolidin-1-yl]carbonyl}phenyl)piperidin-4-yl]methyl}piperidin-1-yl)-2-(3,5-dichlorophenyl)-1,1,1-trifluoro-3-oxopropan-2-ol] |  |
| NO IP | 53 | 10 | 6 |  | CCOc1cccc(C(O)(C(=O)N2CCC(CC3CCN(c4ccc(C(=O)N(C)C)c(Cl)n4)CC3)CC2)C(F)(F)F)c1 (stereo not drawn) [Example 7-77, 2-chloro-6-[4-({1-[2-(3-ethoxyphenyl)-3,3,3-trifluoro-2-hydroxypropanoyl]piperidin-4-yl}methyl)piperidin-1-yl]-N,N-dimethylpyridine-3-carboxamide] |  |
| NO IP | 54 | 1230 | 0 |  | COc1cccc([C@@](O)(C(=O)N2CCC(CC3CN(c4ccc(C(=O)N(C)C)c(OC)n4)C3)CC2)C(F)(F)F)c1 [Example 7-23, 2-methoxy-N,N-dimethyl-6-[3-({1-[(2R)-3,3,3-trifluoro-2-hydroxy-2-(3-methoxyphenyl)propanoyl]piperidin-4-yl}methyl)azetidin-1-yl]pyridine-3-carboxamide] |  |
| NO IP | 29 | 236 | 7 |  | CN(C)C(=O)c1ccc(N2CCC(CC3CCN(C(=O)C(F)(F)c4ccc(F)cc4)CC3)CC2)nc1Cl [Example 7-85, 2-chloro-6-[4-({1-[difluoro(4-fluorophenyl)acetyl]piperidin-4-yl}methyl)piperidin-1-yl]-N,N-dimethylpyridine-3-carboxamide] |  |
|  | 125 | 34 | 31 | 1610 | CN(C)C(=O)c1ccc(N2CCC(CC3CCN(C(=O)[C@@](O)(c4cc(F)cc(Cl)c4)C(F)(F)F)CC3)CC2)nc1Cl [Example 7-113, 2-chloro-6-[4-({1-[(2S)-2-(3-chloro-5-fluorophenyl)-3,3,3-trifluoro-2-hydroxypropanoyl]piperidin-4-yl}methyl)piperidin-1-yl]-N,N-dimethylpyridine-3-carboxamide] |  |
|  | 118 | 64 | 12 | 1020 | CN(C)C(=O)c1ccc(N2CCC(CC3CCN(C(=O)[C@@](O)(c4cccc(Br)c4)C(F)(F)F)CC3)CC2)nc1Cl [Example 7-68, 6-[4-({1-[(2S)-2-(3-bromophenyl)-3,3,3-trifluoro-2-hydroxypropanoyl]piperidin-4-yl}methyl)piperidin-1-yl]-2-chloro-N,N-dimethylpyridine-3-carboxamide] |  |

The next lines start with the compound.

| Structure (SMILES) | LXR alpha IP (nM) [2, 3] | Emax [1, 4] [%] | EC50 [1, 5] [nM] | Emax [2, 6] [%] | EC50 [2, 7] [nM] | other results |
| --- | --- | --- | --- | --- | --- | --- |
| CN(C)C(=O)c1ccc(N2CCC(CC3CCN(C(=O)C(O)(c4ccccc4)C4CCCC4)CC3)CC2)nc1Cl (stereo not drawn) [Example 7-94, 2-chloro-6-[4-({1-[cyclopentyl(hydroxy)phenylacetyl]piperidin-4-yl}methyl)piperidin-1-yl]-N,N-dimethylpyridine-3-carboxamide] | NO IP |  |  |  |  | EC50 ([1]; LXR beta IP (nM), potency (Inflection Point, IP), co-activator recruitment to LXRbeta LBD, in relation to T0901317): 72 nM; Emax ([1]; read-out: LXR beta Activity @ max dose (%)): 62%; Emax ([2]; read-out: LXR alpha Activity @ max dose (%)): 10% |
| CN(C)C(=O)c1ccc(N2CCC(OC3CCN(C(=O)[C@](O)(c4cc(Cl)cc(Cl)c4)C(F)(F)F)CC3)CC2)cc1Cl [Example 2-46, 2-chloro-4-[4-({1-[(2R)-2-(3,5-dichloro-phenyl)-3,3,3-trifluoro-2-hydroxy-propanoyl]piperidin-4-yl}oxy)piperidin-1-yl]-N,N-dimethyl-benzamide] |  | 102 | 9 | 31 | 216 |  |
| CN(C)C(=O)c1ccc(N2CCC(CC3CCN(S(=O)(=O)c4cc(F)cc(F)c4)CC3)CC2)cc1Cl [Example 13-6, 2-chloro-4-[4-({1-[(3,5-difluorophenyl)-sulfonyl]piperidin-4-yl}methyl)piperidin-1-yl]-N,N-dimethylbenzamide] |  |  |  |  |  | EC50 [1, 8]: 75 nM; Emax [1, 9]: 41%; LXR alpha IP (Inflection Point, potency) [2, 10]: NO IP; Emax [2, 11]: 12% |
| CN(C)C(=O)c1ccc(N2CCC(CC3CN(C(=O)[C@](O)(c4ccccc4)C(F)(F)F)C3)CC2)cc1Cl [Example 2-58, 2-chloro-N,N-dimethyl-4-[4-({1-[(2R)-3,3,3-trifluoro-2-hydroxy-2-phenylpropanoyl]azetidin-3-yl}methyl)piperidin-1-yl]benzamide] |  | 88 | 16 | 38 | 951 |  |
| CN(C)C(=O)c1ccc(N2CCC(OC3CCN(C(=O)[C@](O)(c4ccccc4)C(F)(F)C(F)(F)F)CC3)CC2)cc1Cl [Example 2-22, 2-chloro-N,N-dimethyl-4-[4-({1-[(2R)-3,3,4,4,4-pentafluoro-2-hydroxy-2-phenylbutanoyl]piperidin-4-yl}oxy)piperidin-1-yl]benzamide] |  | 131 | 21 | 51 | 900 |  |
| CCOc1cccc([C@@](O)(C(=O)N2CCC(CC3CCN(c4ccc(C(=O)N(C)C)c(Cl)c4)CC3)CC2)C(F)(F)F)c1 [Example 2-92, 2-chloro-4-[4-({1-[(2R)-2-(3-ethoxyphenyl)-3,3,3-trifluoro-2-hydroxy-propanoyl]piperidin-4-yl}methyl)piperidin-1-yl]-N,N-dimethyl-benzamide] | NO IP | 56 | 12 | 3 |  |  |
| CN(C)C(=O)c1ccc(N2CCC(CC3CCN(S(=O)(=O)c4cccc(Br)c4)CC3)CC2)cc1Cl [Example 13-12, 4-[4-({1-[(3-bromo-phenyl)sulfonyl]-piperidin-4-yl}methyl)-piperidin-1-yl]-2-chloro-N,N-dimethyl-benzamide] |  |  |  |  |  | EC50 [1, 8]: 83 nM; Emax [1, 9]: 54%; LXR alpha IP (Inflection Point, potency) [2, 10]: NO IP; Emax [2, 11]: 16% |
| CN(C)C(=O)c1ccc(N2CCC(CC3CN(S(=O)(=O)c4ccccc4)C3)CC2)nc1Cl [Example 14-1, 2-chloro-N,N-dimethyl-6-(4-((1-(phenylsulfonyl)azetidin-3-yl)methyl)piperidin-1-yl)nicotinamide] |  |  |  |  |  | EC50 [1, 8]: 44 nM; Emax ([1]; read-out: LXR beta Activity @ max dose): 111%; EC50 [2, 12]: 3430 nM; Emax ([2]; read-out: LXR alpha Activity @ max dose): 55% |
| Cc1cc(N2CCC(CC3CCN(C(=O)[C@](O)(c4cc(F)cc(Cl)c4)C(F)(F)F)CC3)CC2)ccc1C(=O)N(C)C [Example 2-153, 4-[4-({1-[(2R)-2-(3-chloro-5-fluorophenyl)-3,3,3-trifluoro-2-hydroxy-propanoyl]piperidin-4-yl}methyl)piperidin-1-yl]-N,N,2-trimethyl-benzamide] |  | 95 | 8 | 41 | 123 |  |
| CN(C)C(=O)c1ccc(N2CCC(CC3CCN(C(=O)C(O)(c4cccs4)C(F)(F)F)CC3)CC2)cc1Cl (stereo not drawn) [Example 2-37, 2-chloro-N,N-dimethyl-4-(4-{[1-(3,3,3-trifluoro-2-hydroxy-2-thiophen-2-ylpropanoyl)piperidin-4-yl]methyl}piperidin-1-yl)benzamide] |  | 73 | 29 | 33 | 620 |  |
| NC(=O)c1ccc(N2CCC(CC3CCN(C(=O)C(O)(c4cc(F)cc(Cl)c4)C(F)(F)F)CC3)CC2)cc1Cl (stereo not drawn) [Example 12-9, 2-chloro-4-[4-({1-[2-(3-chloro-5-fluorophenyl)-3,3,3-trifluoro-2-hydroxy-propanoyl]piperidin-4-yl}methyl)piperidin-1-yl]benzamide] |  |  |  |  |  | EC50 [1, 8]: 8 nM; Emax [1, 9]: 98%; EC50 [2, 12]: 47 nM; Emax [2, 11]: 52% |
| CN(C)C(=O)c1ccc(N2CCC(CC3CCN(S(=O)(=O)c4cc(F)ccc4F)CC3)CC2)cc1Cl [Example 13-5, 2-chloro-4-[4-({1-[(2,5-difluorophenyl)-sulfonyl]piperidin-4-yl}methyl)piperidin-1-yl]-N,N-dimethylbenzamide] |  |  |  |  |  | EC50 [1, 8]: 52 nM; Emax [1, 9]: 63%; EC50 [2, 12]: 590 nM; Emax [2, 11]: 33% |
